Results: patent publication US9593103B2, “Pyridyl hydrazones for the treatment of tuberculosis and related diseases” (TECNIMEDE SOCIEDADE TECNICO-MEDICINAL S.A., priority 2012, dated 2017)

Test system: Mycobacterium smegmatis
Experiment: In vitro Mycobacterium smegmatis growth inhibition assay (suspension turbidity, 96 hours)
Assay type: cell-based
Details: for inhibitory activity against Mycobacterium smegmatis growth (in words, compared with RMP): compared with the active control RMP; for % of Celular Growth at 96 hours: Mycobacterium smegmatis; for IC50: concentration to inhibit 50% of Mycobacterium smegmatis growth, four parameter curve fit

Compound: C(=NNc1ccccn1)c1cccs1 [N-pyridin-2-yl-N′-thiophen-2-ylmethylene-hydrazine]
- inhibitory activity against Mycobacterium smegmatis growth (in words, compared with RMP): desired pharmacological activity

Compound: 2-hydroxy-5-methylbenzaldehyde-(2-pyridinyl)hydrazine [Compound 61]
- % of Celular Growth at 96 hours (concentration 1.23 μM): 75.35%
- % of Celular Growth at 96 hours (concentration 3.70 μM): 69.76%
- % of Celular Growth at 96 hours (concentration 11.11 μM): 83.84%
- % of Celular Growth at 96 hours (concentration 33.33 μM): 20.08%
- % of Celular Growth at 96 hours (concentration 100.00 μM): 24.45%
- inhibitory activity against Mycobacterium smegmatis growth (in words, compared with RMP): better IC50 values than RMP
- inhibitory activity against Mycobacterium smegmatis growth (in words, compared with RMP) (listed as N-pyridin-2-yl-N′-5-methyl-2-hydroxyphenylmethylene-hydrazine): desired pharmacological activity
- IC50: 13.5 µM

Compound: 3,5-dibromo-2-hydroxybenzaldehyde (2-pyridinyl)hydrazine [Compound 42]
- % of Celular Growth at 96 hours (concentration 1.23 μM): 110.06%
- % of Celular Growth at 96 hours (concentration 3.70 μM): 104.48%
- % of Celular Growth at 96 hours (concentration 11.11 μM): 98.17%
- % of Celular Growth at 96 hours (concentration 33.33 μM): 41.52%
- % of Celular Growth at 96 hours (concentration 100.00 μM): 31.91%
- inhibitory activity against Mycobacterium smegmatis growth (in words, compared with RMP): better IC50 values than RMP
- inhibitory activity against Mycobacterium smegmatis growth (in words, compared with RMP) (listed as compound 42): superior inhibitory activity against Mycobacterium smegmatis than the prior art compound RMP
- IC50: 15.2 µM

Compound: Oc1ccc(Br)cc1C=NNc1ccccn1 [Compound 70, 5-bromo-2-hydroxybenzaldehyde-2pyridinilhydrazone]
- % of Celular Growth at 96 hours (concentration 1.23 μM): 95.9%
- % of Celular Growth at 96 hours (concentration 3.70 μM): 96.6%
- % of Celular Growth at 96 hours (concentration 11.11 μM): 80.0%
- % of Celular Growth at 96 hours (concentration 33.33 μM): 44.2%
- % of Celular Growth at 96 hours (concentration 100.00 μM): 38.9%
- inhibitory activity against Mycobacterium smegmatis growth (in words, compared with RMP): better IC50 values than RMP
- inhibitory activity against Mycobacterium smegmatis growth (in words, compared with RMP) (listed as N-pyridin-2-yl-N′-5-bromo-2-hydroxyphenylmethylene-hydrazine): desired pharmacological activity
- IC50: 13.9 µM

Compound: CO[C@H]1/C=C/O[C@@]2(C)Oc3c(C)c(O)c4c(O)c(c(/C=N/N5CCN(C)CC5)c(O)c4c3C2=O)NC(=O)/C(C)=C\C=C\[C@H](C)[C@H](O)[C@@H](C)[C@@H](O)[C@@H](C)[C@H](OC(C)=O)[C@@H]1C [Rifampicin, reference compound]
- % of Celular Growth at 96 hours (concentration 1.23 μM): 82.55%
- % of Celular Growth at 96 hours (concentration 3.70 μM): 81.40%
- % of Celular Growth at 96 hours (concentration 11.11 μM): 90.62%
- % of Celular Growth at 96 hours (concentration 33.33 μM): 58.04%
- % of Celular Growth at 96 hours (concentration 100.00 μM): 22.26%
- IC50 (Mycolicibacterium smegmatis): 24.8 µM
